Legend:
GCGR = experiment: cAMP accumulation assay, GCGR WT, mutant or modified constructs; assay type: cell-based, human; settings: GCGR triple mutant (Q142A + D195A + R199A) vs WT
Experimental: Human embryonic kidney 293 cells containing SV40 large T-antigen (HEK293T) were cultured in DMEM (Gibco) supplemented with 10% (v/v) fetal bovine serum (FBS, Gibco), 1 mM sodium pyruvate (Gibco) and 100 units/mL penicillin and 100 μg/mL streptomycin at 37 °C in 5% CO2. Chinese hamster ovary (CHO-K1) cells were cultured in F-12 (Gibco) containing 10% FBS, 100 units/mL penicillin and 100 μg/mL streptomycin at 37 °C in 5% CO2. For cAMP and receptor expression assays, HEK293T cells were seeded into 6-well cell culture plates at a density of 7 × 10^5 cells per well. After overnight incubation, cells were transfected with GIPR, GLP-1R or GCGR construct using Lipofectamine 2000 or Lipofectamine 3000 transfection reagent (Invitrogen). For whole-cell binding assay, CHO-K1 cells were seeded into 96-well fibronectin-treated cell culture plates at a density of 3 × 10^4 cells per well. After overnight incubation, cells were transfected with GIPR, GLP-1R or GCGR construct using Lipofectamine 2000 transfection reagent (Invitrogen). Following 24 h culturing, the transfected cells were ready for use. […]
For GIPR, GLP-1R and GCGR, multi-targeting agonist stimulated cAMP accumulation was measured by a LANCE Ultra cAMP kit (PerkinElmer). […] Plates were incubated at RT for 1 h and the fluorescence intensity measured at 620 nm and […] by an EnVision multilabel plate reader (PerkinElmer).

GLP-1R [1] = molecular target: GLP-1R (Homo sapiens, UniProt P43220, D198A); experiment: Whole-cell binding assay, competition with 125I-GLP-1(7-36)NH2; set-up: Flag; expressed in transfected cells; settings: GLP-1R D198A, CHO-K1
Sequence of GLP-1R (Homo sapiens, UniProt P43220, D198A) (P43220 24-463 D198A): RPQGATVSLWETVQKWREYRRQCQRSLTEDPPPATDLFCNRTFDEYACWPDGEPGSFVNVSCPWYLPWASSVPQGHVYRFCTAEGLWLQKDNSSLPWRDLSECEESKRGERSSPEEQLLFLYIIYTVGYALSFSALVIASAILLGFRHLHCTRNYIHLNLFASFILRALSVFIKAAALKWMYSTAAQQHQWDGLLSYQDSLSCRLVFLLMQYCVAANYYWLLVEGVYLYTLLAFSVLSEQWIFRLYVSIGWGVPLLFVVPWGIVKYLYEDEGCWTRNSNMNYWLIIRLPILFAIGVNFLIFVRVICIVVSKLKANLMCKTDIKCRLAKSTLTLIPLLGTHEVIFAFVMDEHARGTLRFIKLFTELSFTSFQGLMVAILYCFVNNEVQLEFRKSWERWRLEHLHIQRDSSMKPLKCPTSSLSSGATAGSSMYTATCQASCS
How it was run: (§1)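 CHO-K1 cells transiently transfected with WT or mutant receptor constructs, washed in F-12 with 0.1% BSA or casein/33 mM HEPES and incubated 2 h at 37 °C. Bound radioactivity counted after Triton lysis; data normalized to WT and fitted to a three-parameter logistic equation.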

GLP-1R [2] = molecular target: GLP-1R (Homo sapiens, UniProt P43220, D198A/K202A/Y145A); experiment: as above; set-up: Flag; expressed in transfected cells; settings: GLP-1R Y145A/D198A/K202A, CHO-K1
Sequence of GLP-1R (Homo sapiens, UniProt P43220, D198A/K202A/Y145A) (P43220 24-463 Y145A/D198A/K202A): as the sequence (P43220 24-463 D198A) above, with Y122A, K179A counted along it
How it was run: as §1

GLP-1R [3] = molecular target: GLP-1R (Homo sapiens, UniProt P43220, K202A); experiment: as above; set-up: Flag; expressed in transfected cells; settings: GLP-1R K202A, CHO-K1
Sequence of GLP-1R (Homo sapiens, UniProt P43220, K202A) (P43220 24-463 K202A): as the sequence (P43220 24-463 D198A) above, with A175D, K179A counted along it
How it was run: as §1

GLP-1R [4] = molecular target: GLP-1R (Homo sapiens, UniProt P43220, Q210A); experiment: as above; set-up: Flag; expressed in transfected cells; settings: GLP-1R Q210A, CHO-K1
Sequence of GLP-1R (Homo sapiens, UniProt P43220, Q210A) (P43220 24-463 Q210A): as the sequence (P43220 24-463 D198A) above, with A175D, Q187A counted along it
How it was run: as §1

GLP-1R [5] = molecular target: GLP-1R (Homo sapiens, UniProt P43220, R134A); experiment: as above; set-up: Flag; expressed in transfected cells; settings: GLP-1R R134A, CHO-K1
Sequence of GLP-1R (Homo sapiens, UniProt P43220, R134A) (P43220 24-463 R134A): as the sequence (P43220 24-463 D198A) above, with R111A, A175D counted along it
How it was run: as §1

GLP-1R [6] = molecular target: GLP-1R (Homo sapiens, UniProt P43220, W39A); experiment: as above; set-up: Flag; expressed in transfected cells; settings: GLP-1R W39A; CHO-K1
Sequence of GLP-1R (Homo sapiens, UniProt P43220, W39A) (P43220 24-463 W39A): as the sequence (P43220 24-463 D198A) above, with W16A, A175D counted along it
How it was run: as §1

GLP-1R [7] = molecular target: GLP-1R (Homo sapiens, UniProt P43220, W91A); experiment: as above; set-up: Flag; expressed in transfected cells; settings: GLP-1R W91A, CHO-K1
Sequence of GLP-1R (Homo sapiens, UniProt P43220, W91A) (P43220 24-463 W91A): as the sequence (P43220 24-463 D198A) above, with W68A, A175D counted along it
How it was run: as §1

GLP-1R [8] = molecular target: GLP-1R (Homo sapiens, UniProt P43220, Y205A); experiment: as above; set-up: Flag; expressed in transfected cells; settings: GLP-1R Y205A, CHO-K1
Sequence of GLP-1R (Homo sapiens, UniProt P43220, Y205A) (P43220 24-463 Y205A): as the sequence (P43220 24-463 D198A) above, with A175D, Y182A counted along it
How it was run: as §1

[9] = read-out: binding pIC50 (converted)

CCCCCCCCCCCCCCCC(=O)N[C@@H](CCC(=O)NCCCC[C@H](NC(=O)[C@H](CC(=O)O)NC(=O)[C@H](CO)NC(=O)[C@@H](NC(=O)[C@H](Cc1ccccc1)NC(=O)[C@@H](NC(=O)CNC(=O)[C@H](CCC(N)=O)NC(=O)C(C)(C)NC(=O)[C@@H](N)Cc1c[nH]cn1)[C@@H](C)O)[C@@H](C)O)C(=O)N[C@@H](CO)C(=O)N[C@@H](CCCCN)C(=O)N[C@@H](Cc1ccc(O)cc1)C(=O)N[C@@H](CC(C)C)C(=O)N[C@@H](CC(=O)O)C(=O)N[C@@H](CCC(=O)O)C(=O)N[C@@H](CCCNC(=N)N)C(=O)N[C@@H](C)C(=O)N[C@@H](C)C(=O)N[C@@H](CCC(N)=O)C(=O)N[C@@H](CC(=O)O)C(=O)N[C@@H](Cc1ccccc1)C(=O)N[C@H](C(=O)N[C@@H](CCC(N)=O)C(=O)N[C@@H](Cc1c[nH]c2ccccc12)C(=O)N[C@@H](CC(C)C)C(=O)N[C@@H](CC(C)C)C(=O)N[C@@H](CC(=O)O)C(=O)NCC(=O)NCC(=O)N1CCC[C@H]1C(=O)N[C@@H](CO)C(=O)N[C@@H](CO)C(=O)NCC(=O)N[C@@H](C)C(=O)N1CCC[C@H]1C(=O)N1CCC[C@H]1C(=O)N1CCC[C@H]1C(=O)N[C@@H](CO)C(N)=O)C(C)C)C(=O)O [Peptide 20]
reduction of potency (cAMP) by receptor mutation (GCGR): 93 fold | binding Span (GLP-1R [1]): 1.88 ± 1.66 % WT | IC50 (GLP-1R [1]; [9]): 52.5 nM | binding Span (GLP-1R [2]): 10.85 ± 36.78 % WT | IC50 (GLP-1R [2]; [9]): 1780 nM | binding Span (GLP-1R [3]): 15.32 ± 1.82 % WT | IC50 (GLP-1R [3]; [9]): 3.47 nM | binding Span (GLP-1R [4]): 100.10 ± 5.13 % WT | IC50 (GLP-1R [4]; [9]): 4.07 nM | binding Span (GLP-1R [5]): 73.44 ± 3.42 % WT | IC50 (GLP-1R [5]; [9]): 3.02 nM | binding Span (GLP-1R [6]): N.B. | binding pIC50 (GLP-1R [6]): N.B. | binding Span (GLP-1R [7]): 6.51 ± 2.59 % WT | IC50 (GLP-1R [7]; [9]): 2.04 nM | binding Span (GLP-1R [8]): 6.01 ± 3.17 % WT | IC50 (GLP-1R [8]; [9]): 50.1 nM
